Test results taken from patent US20250281629A1, “COMPOSITIONS AND METHODS FOR ANTI-PHOSPHOCHOLINE ACTIVE IMMUNOTHERAPY” (Duke University, priority 2022, published 2025).
Where no end group is shown, it is not given here. C11H22NO6P = phosphorylcholine group attached via 2-methacryloyloxyethyl phosphorylcholine

How the values were obtained:
Format in all cases: in vivo, mouse
[1] = tested on: CD4^+ T-cell depleted mice; test: Anti-PC responses in CD4+ T-cell depleted mice; details: for anti-PC IgM in the absence of CD4+ T cells: anti-CD4 antibody; for main anti-PC IgG subclass in CD4+ T cell-depleted mice: week 3
Experimental: (§1) Detection of Anti-PC Antibody Responses via ELISA. Anti-PC antibody responses in serum collected from the submandibular vein in mice were measured using ELISA. Briefly, plates were coated with 20 μg/mL PC-BSA (Biosearch Technologies, PC-1011-10) in 1×PBS or just 1×PBS at 4° C. overnight. The next day, the plates were washed using 1×PBST (1×PBS with 0.05% Tween 20) and then blocked three times with Superblock blocking buffer solution (Thermo Fisher, 37515). Serum diluted from 1:10^2 to 1:10^5 in 1% BSA in 1×PBST was the added to the plate and allowed to incubate for 2 h at room temperature. Anti-PC IgG was detected using HRP-conjugated Fcγ fragment-specific goat anti-mouse IgG (Jackson Immuno Research, 15-035-071). IgG subclasses and IgM anti-PC antibodies were detected using Southern Biotech HRP-conjugated goat anti-mouse antibodies (IgG1, IgG2b, IgG2c, IgG3, & IgM: 5300-05B). Area under the curve (AUC) measurements were calculated using background-subtracted absorbance values at dilutions from 1:10^2 to 1:10^5. Antibody titers were defined using an absorbance cutoff above background of 0.2 OD, where titer 2 represents an OD value greater than 0.2 at 1:10^2 dilution and so on up to titer 5 at 1:10^5 dilution.
T Cell ELISpot. T-cell responses were measured using ELISpot. Mice were euthanized 6 days after booster immunization and splenocytes were isolated using Lympholyte-M (Cedarlane, c15031). Splenocytes were stimulated with either media (negative control), Concanavalin A (ConA) (Sigma, C5275) (positive control), or PADRE peptide (1 μM) and then plated at 250,000 cells/well on IL-4 and IFN-γ capture antibody-coated 96-well ELISpot plates (Millipore, MSIPS4510). IL-4 (BD, 551878) and IFNγ (BD, 551881) detection antibodies followed by streptavidin-alkaline phosphatase (Mabtech, 3310-0) and Sigmafast BCIP/NBT (Sigma, B5655) were used to develop cell spots. The quantification of cell spots was then outsourced to Zellnet Consulting Services which uses a Zeiss KS ELISPOT reader. ELISpot counts shown represent spot counts after the subtraction of spots in the negative control wells for each sample.
CD4 T cell Depletion. Mice were given 200 μg of either anti-mouse CD4 (InVivoMAb, clone GK1.5, BioXCell, BE0003-1) or isotype control (InVivoMAb rat IgG2b isotype control anti-KLH, clone LTF-2, BioXCell, BE0090) antibodies in 100 μL InVivoPure pH 6.5 dilution buffer (BioXCell, IP0065) via i.p. injection at days −3, −1, 3, 7, 11, 15, and 19. On days 0 and 22, cells from the spleen, draining lymph nodes (axial, brachial, and inguinal), and mesenteric lymph nodes of unimmunized mice were isolated via physical separation using a 70 μm filter in order to verify CD4^+ T-cell depletion (FIGS. 11A-11E, representative flow cytometry shown in FIG. 12). The cells were treated with mouse BD Fc Block (Clone: 2.4G2) (BD Biosciences, 553142) in flow buffer on ice for 30 min and then washed and stained with antibodies against the following markers: CD4-FITC (Clone: GK1.5) (BD Biosciences, 557307), CD45-PE (Clone: 30-F11) (BioLegend, 103106), CD8a-PE-Cy7 (Clone: 53-6.7 (BD Biosciences, 552877), and CD3e-BV605 (Clone: 145-2C11) (BD Biosciences, 563004) in flow buffer for 30 min on ice. Cells were then washed in flow buffer and stained with DAPI. Flow cytometry was conducted on a BD FACSCanto II cytometer and the results were analyzed using FlowJo software. To determine the importance of PADRE T-cell epitope inclusion in immunizations, anti-CD4 or isotype control antibody-administered mice were immunized on days 0 and 14, with anti-PC antibodies measured at days 0, 7, and 22 via ELISA and T-cell responses measured on day 22 via ELISpot.

[2] = tested on: non-B1a B cells (CD19+CD5−); test: Nanofiber uptake in i.p. lavage cells, flow cytometry: non-B1a B cells; details: for non-B1a B cells that acquired nanofibers: 4 hours after i.p. injection of TAMRA-labeled nanofibers
Experimental: Nanofiber Uptake and Evaluation. The cell types present and their propensity to uptake nanofibers in the i.p. space was tested by injecting mice i.p. with 100 μL of 2 mM TAMRA-labeled fluorescent nanofibers. 4 hours later, mice were euthanized and i.p. lavage was conducted via the injection of 2 mL of cold 1×PBS into the peritoneal cavity and massaging the abdomen for 30 seconds. The solution was then carefully extracted from the i.p. space and the cells were isolated followed by rinsing with ice cold flow buffer (2% heat-inactivated FBS in 1×PBS). The cells present were treated with mouse BD Fc Block (Clone: 2.4G2) (BD Biosciences, 553142) in flow buffer on ice for 30 min and then washed and stained with antibodies against the following markers: CD5-APC (Clone: 53-7.3) (BioLegend, 100626), F4/80-PerCP/Cy5.5 (Clone: BM8) (BioLegend, 123128), CD19-APC/Cy7 (Clone: 6D5) (BioLegend, 115530), CD11c-PE/Cy7 (Clone: N418) (BioLegend, 117318), and CD86-BV605 (Clone: GL1) (BD Biosciences, 2272591) in flow buffer for 30 min on ice. TAMRA-fluorescence as an indication of nanofiber uptake was measured on the PE channel. Cells were then washed in flow buffer and stained with DAPI. Flow cytometry was conducted on a BD FACSCanto II cytometer and the results were analyzed using FlowJo software.

[3] = tested on: C57BL/6 mice; test: Serum anti-PC antibody responses of immunized mice via ELISA (PC-BSA coated)
Experimental: Mice and Immunizations. Female C57BL/6 mice (Envigo) age 6-10 weeks were used to initiate experiments except for the Il10^−/− colitis study where female B6.129P2-Il10^tm1Cgn/J (The Jackson Laboratory) mice age 5-7 weeks were used. While female mice were used for most experiments, age-matched male C57BL/6 mice (Envigo) were used in a one cycle acute DSS colitis model to confirm efficacy across sexes. Mice were housed at Duke University. All experimental procedures were performed on protocols (A264-18-11 and A199-21-09) approved by the Duke University Institutional Animal Care and Use Committee (IACUC). For subcutaneous immunizations, anesthetized mice were injected once behind each shoulder with 50 μL of 2 mM peptide nanofiber solution or 1×PBS. For intraperitoneal immunizations, mice were injected with 100 μL of 2 mM peptide nanofiber solution or 1×PBS. Nanofiber immunizations with adjuvant contained 10 μg CpG (ODN 1826, IAX-200-002-3001, Innaxon). For injections of only CpG, 10 μg of CpG in 100 μL 1×PBS was used. Mice were typically given three immunizations, with the specific boosting schedules stated in each figure caption, usually at weeks 0, 2, and 4, as this was determined to produce robust antibody responses in a short time frame.
as §1

[4] = i.p. day 0 and 14, with PADRE-Q11 and CpG

Substance	total anti-PC IgG production, dependence on CD4+ T cells [1, 4]	anti-PC IgM in the absence of CD4+ T cells [1, 4]	main anti-PC IgG subclass in CD4+ T cell-depleted mice [1]	TAMRA MFI of non-B1a B cells ([2]; 4 hours after i.p. injection)	non-B1a B cells that acquired nanofibers [2]	non-B1a B cells among total TAMRA+ cells ([2]; total TAMRA+ cells categorized by cell type)	antibody response against PC-BSA (serum total anti-PC IgG) ([3]; s.c. or i.p., weeks 0, 3, 11, with PADRE-Q11, PC-Q11 vs pa-PC-Q11)	anti-PC IgM, isotype control vs CD4-depleted [1, 4]	non-B1a B cells in the peritoneal cavity (total cells) ([2]; compared with PC-Q11, Q11, or PBS alone)	anti-PC antibody levels on increasing epitope content 2.5 times ([3]; 0.5 mM (25%) vs 0.2 mM (10%) PCM-Q11, i.p. with CpG)	anti-PC IgG responses, PCM-Q11 vs PC-Q11 ([3]; i.p., weeks 0, 2, 4, both coassembled with PADRE-Q11)
C11H22NO6P-CSGSG-QQKFQFQFEQQ-NH2 (C(C11H22NO6P)SGSGQQKFQFQFEQQ-NH2) [PC-Q11, phosphodiester PC-Q11]	reliant on CD4^+ T cells	generated by both immunizations in the absence of CD4^+ T cells	IgG3	selective uptake	over 80%	acquired primarily by non-B1a B cells	significantly greater antibody response	–	–	–	–
(C11H22NO6P)n-CCCCSGSG-QQKFQFQFEQQ-NH2 (CCCCSGSGQQKFQFQFEQQ-NH2; not fully specified; cysteine pairing not given here; also: phosphorylcholine groups (C11H22NO6P) n=1-4, attachment not placed) [PCM-Q11, linear multi-PC conjugate]	reliant on CD4^+ T cells	generated by both immunizations in the absence of CD4^+ T cells	IgG3	–	< 30%	–	–	significantly greater for PCM-Q11 immunizations when CD4^+ T cells were present	reduction in non-B1a B cells	no significant change in the response elicited	significantly greater than i.p. immunization with PC-Q11
